ChEMBL document CHEMBL5724914, “Linking interpersonal differences in gut microbiota composition and drug biotransformation activity” (2024)

Key:
[1] = human gut metagenome, 24 h, 2 µM
[2] = human gut metagenome, 24 h, 2 µM; remark: listed apart in the source
[3] = (§1) The drug is tested on Z-023 corresponding to metagenome with ENA study accession number: PRJEB37062 and ENA sample accession number: ERS12561822 for biotransformation under anaerobic condition. The drug concentrations were measured over 9 timepoints collected between 0 and 24 hours of incubation by liquid-chromatography-coupled mass spectrometry (LC–MS); details: 2 µM
[4] = human gut metagenome, 24 h, 2 µM; remark: listed apart in the source
[5] = as §1, with “Z-008” for “Z-023”, “ERS12561808” for “ERS12561822”; details: 2 µM
[6] = (§2) The drug is tested on Z-018 corresponding to pig gut metagenome with ENA study accession number: PRJEB37062 and ENA sample accession number: ERS12561817 for biotransformation under anaerobic condition. The drug concentrations were measured over 9 timepoints collected between 0 and 24 hours of incubation by liquid-chromatography-coupled mass spectrometry (LC–MS); details: 2 µM
[7] = as §2, with “WLS-170” for “Z-018”, “human” for “pig”, “ERS12561762” for “ERS12561817”; details: 2 µM
[8] = as §2, with “WLS-038” for “Z-018”, “human” for “pig”, “ERS12561745” for “ERS12561817”; details: 2 µM
[9] = as §2, with “Z-016” for “Z-018”, “mouse” for “pig”, “ERS12561815” for “ERS12561817”; details: 2 µM
[10] = human gut metagenome, 24 h, 2 µM; remark: listed apart in the source
[11] = as §2, with “Z-006” for “Z-018”, “mouse” for “pig”, “ERS12561806” for “ERS12561817”; details: 2 µM
[12] = human gut metagenome, 24 h, 2 µM; remark: listed apart in the source
[13] = human gut metagenome, 24 h, 2 µM; remark: listed apart in the source
[14] = as §1, with “Z-021” for “Z-023”, “ERS12561820” for “ERS12561822”; details: 2 µM
[15] = as §1, with “Z-010” for “Z-023”, “ERS12561810” for “ERS12561822”; details: 2 µM
[16] = as §2, with “WLS-350” for “Z-018”, “human” for “pig”, “ERS12561789” for “ERS12561817”; details: 2 µM
[17] = human gut metagenome, 24 h, 2 µM; remark: listed apart in the source
[18] = as §1, with “Z-027” for “Z-023”, “ERS12561826” for “ERS12561822”; details: 2 µM
[19] = as §2, with “WLS-007” for “Z-018”, “human” for “pig”, “ERS12561742” for “ERS12561817”; details: 2 µM
[20] = as §2, with “Z-020” for “Z-018”, “rabbit” for “pig”, “ERS12561819” for “ERS12561817”; details: 2 µM
Note: call rule not given here.

| Compound | Bacterial Biotransformation [1] | Bacterial Biotransformation [2] | Bacterial Biotransformation [3] | Bacterial Biotransformation [4] | Bacterial Biotransformation [5] | Bacterial Biotransformation [6] | Bacterial Biotransformation [7] | Bacterial Biotransformation [8] | Bacterial Biotransformation [9] | Bacterial Biotransformation [10] | Bacterial Biotransformation [11] | Bacterial Biotransformation [12] | Bacterial Biotransformation [13] | Bacterial Biotransformation [14] | Bacterial Biotransformation [15] | Bacterial Biotransformation [16] | Bacterial Biotransformation [17] | Bacterial Biotransformation [18] | Bacterial Biotransformation [19] | Bacterial Biotransformation [20] |
| --- | --- | --- | --- | --- | --- | --- | --- | --- | --- | --- | --- | --- | --- | --- | --- | --- | --- | --- | --- | --- |
| CCOC(=O)[C@H](CCc1ccccc1)N[C@@H](C)C(=O)N1[C@H](C(=O)O)C[C@H]2CCCC[C@@H]21 [TRANDOLAPRIL] | Compound NOT metabolized | Compound metabolized | Compound metabolized | Compound metabolized | Compound NOT metabolized | Compound metabolized | Compound metabolized | Compound metabolized | Compound NOT metabolized | Compound metabolized | Compound NOT metabolized | Compound metabolized | Compound NOT metabolized | Compound NOT metabolized | Compound metabolized | Compound NOT metabolized | Compound metabolized | Compound NOT metabolized | Compound metabolized | Compound metabolized |
| CN1CCc2c(c3ccccc3n2Cc2ccccc2)C1.CN1CCc2c(c3ccccc3n2Cc2ccccc2)C1.O=S(=O)(O)c1cccc2c(S(=O)(=O)O)cccc12 | Compound metabolized | Compound NOT metabolized | Compound NOT metabolized | Compound NOT metabolized | Compound NOT metabolized | Compound NOT metabolized | Compound metabolized | Compound NOT metabolized | Compound NOT metabolized | Compound NOT metabolized | Compound NOT metabolized | Compound NOT metabolized | Compound metabolized | Compound NOT metabolized | Compound NOT metabolized | Compound NOT metabolized | Compound NOT metabolized | Compound NOT metabolized | Compound NOT metabolized | Compound NOT metabolized |
| CN(C)C(=O)C(CCN1CCC(O)(c2ccc(Cl)cc2)CC1)(c1ccccc1)c1ccccc1 [LOPERAMIDE] | Compound metabolized | Compound metabolized | Compound metabolized | Compound metabolized | Compound NOT metabolized | Compound metabolized | Compound metabolized | Compound metabolized | Compound metabolized | Compound metabolized | Compound metabolized | Compound metabolized | Compound metabolized | Compound NOT metabolized | Compound metabolized | Compound metabolized | Compound metabolized | Compound metabolized | Compound metabolized | Compound metabolized |
| CCCCC(=O)N(Cc1ccc(-c2ccccc2-c2nnn[nH]2)cc1)[C@H](C(=O)O)C(C)C | Compound metabolized | Compound NOT metabolized | Compound NOT metabolized | Compound NOT metabolized | Compound NOT metabolized | Compound NOT metabolized | Compound metabolized | Compound metabolized | Compound NOT metabolized | Compound metabolized | Compound NOT metabolized | Compound metabolized | Compound metabolized | Compound metabolized | Compound NOT metabolized | Compound metabolized | Compound metabolized | Compound NOT metabolized | Compound metabolized | Compound NOT metabolized |
